From PubChem BioAssay AID330 (DTP/NCI, 2004)
Several values for one entry are separate records, joined by “and”; a condition that tells them apart may be missing. Equal values may be shown once. Inconclusive results and toxic doses are left out.

Tested on: P388 leukemia ip, CD2F1 mice, survival T/C
Assay: NCI In Vivo Anticancer Drug Screen. Data for tumor model P388 Leukemia (intraperitoneal) in CD2F1 (CDF1) mice
Conditions: endpoint: median survival time, higher = longer survival
In short: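 Mice carrying the transplanted tumor received test compound or vehicle. Survival was recorded in each group, and the value is the treated-group measurement divided by that of the vehicle-treated control group.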

[1] = dose: 25.0 mg/kg/injection, schedule: Q01DX005 (ip), vehicle: water
[2] = dose: 200.0 mg/kg/injection, schedule: Q01DX005 (ip), vehicle: water
[3] = dose: 50.0 mg/kg/injection, schedule: Q01DX005 (ip), vehicle: Klucel (hydroxypropylcellulose) (HPC)
[4] = dose: 100.0 mg/kg/injection, schedule: Q01DX005 (ip), vehicle: Klucel (hydroxypropylcellulose) (HPC)
[5] = dose: 200.0 mg/kg/injection, schedule: Q01DX005 (ip), vehicle: Klucel (hydroxypropylcellulose) (HPC)
[6] = dose: 15.0 mg/kg/injection, schedule: Q01DX005 (ip), vehicle: saline with Tween-80
[7] = dose: 50.0 mg/kg/injection, schedule: Q01DX009 (ip), vehicle: saline
[8] = dose: 200.0 mg/kg/injection, schedule: Q01DX009 (ip), vehicle: saline
[9] = dose: 50.0 mg/kg/injection, schedule: Q01DX005 (ip), vehicle: saline with Tween-80
[10] = dose: 100.0 mg/kg/injection, schedule: Q01DX005 (ip), vehicle: saline with Tween-80
[11] = dose: 200.0 mg/kg/injection, schedule: Q01DX005 (ip), vehicle: saline with Tween-80
[12] = dose: 12.5 mg/kg/injection, schedule: Q01DX009 (ip), vehicle: saline with Tween-80
[13] = dose: 25.0 mg/kg/injection, schedule: Q01DX009 (ip), vehicle: saline with Tween-80
[14] = dose: 50.0 mg/kg/injection, schedule: Q01DX009 (ip), vehicle: saline with Tween-80
[15] = dose: 60.0 mg/kg/injection, schedule: Q01DX005 (ip), vehicle: Klucel (hydroxypropylcellulose) (HPC)
[16] = dose: 120.0 mg/kg/injection, schedule: Q01DX005 (ip), vehicle: Klucel (hydroxypropylcellulose) (HPC)
[17] = dose: 50.0 mg/kg/injection, schedule: Q01DX009 (ip), vehicle: Klucel (hydroxypropylcellulose) (HPC)
[18] = dose: 100.0 mg/kg/injection, schedule: Q01DX009 (ip), vehicle: Klucel (hydroxypropylcellulose) (HPC)
[19] = dose: 200.0 mg/kg/injection, schedule: Q01DX009 (ip), vehicle: Klucel (hydroxypropylcellulose) (HPC)
[20] = dose: 50.0 mg/kg/injection, schedule: Q01DX009 (ip), vehicle: suspension in saline
[21] = dose: 60.0 mg/kg/injection, schedule: Q01DX005 (ip), vehicle: saline with Tween-80

For `Nc1ccn(C2CC(N)C(CO)O2)c(=O)n1` (stereo not drawn), the T/C (dose: 12.5 mg/kg/injection, schedule: Q01DX005 (ip), vehicle: water) was 120 % of control, the T/C [1] was 118 % of control and 123 % of control and the T/C [2] was 153 % of control and 154 % of control.

With `O=S(=O)(O)c1ccccc1P(c1ccccc1)c1ccccc1` the T/C [3] was 98 % of control, the T/C [4] was 94 % of control and the T/C [5] was 88 % of control.

In the case of `O=C1C2C3CCC(O3)C2C(=O)N1CC#CCCl` (stereo not drawn), the T/C (dose: 7.5 mg/kg/injection, schedule: Q01DX005 (ip), vehicle: saline with Tween-80) is reported as 96 % of control and the T/C [6] is reported as 100 % of control.

`O=C(O)c1c[nH]c2cc(OCCOc3ccc(F)cc3)ccc2c1=O` was tested, and the T/C (dose: 100.0 mg/kg/injection, schedule: Q04DX003 (ip), vehicle: saline) was 105 % of control, the T/C (dose: 200.0 mg/kg/injection, schedule: Q04DX003 (ip), vehicle: saline) was 105 % of control and the T/C (dose: 400.0 mg/kg/injection, schedule: Q04DX003 (ip), vehicle: saline) was 104 % of control.

`O=C(CN1C(=O)c2ccccc2C1=O)OCCNCCCl` was tested, and the T/C [7] was 99 % of control, the T/C (dose: 100.0 mg/kg/injection, schedule: Q01DX009 (ip), vehicle: saline) was 106 % of control and the T/C [8] was 107 % of control.

For `O=C1N[C@H]2CS(=O)(=O)C[C@H]2N1`, the T/C [9] was 100 % of control, the T/C [10] was 104 % of control and the T/C [11] was 93 % of control.

With `C=C1CC2(CC(C)CCC2C(=C)C)OC1=O` (stereo not drawn) the T/C (dose: 100.0 mg/kg/injection, schedule: Q01DX001 (ip), vehicle: saline) was 101 % of control, the T/C (dose: 200.0 mg/kg/injection, schedule: Q01DX001 (ip), vehicle: saline) was 102 % of control and the T/C (dose: 400.0 mg/kg/injection, schedule: Q01DX001 (ip), vehicle: saline) was 99 % of control.

With `Cc1ccc(C(O)(CS(C)=O)c2ccco2)cc1` (stereo not drawn) the T/C [12] was 100 % of control, the T/C [13] was 100 % of control and the T/C [14] was 100 % of control.

In the case of `C/C(=N\OCC(O)CNCCNC(=O)C(C)C)c1ccc(N(C)C)cc1` (stereo not drawn), the T/C [15] is reported as 98 % of control and the T/C [16] is reported as 99 % of control.

With `Cc1cc(C)c(-c2cc(C(O)C3OC4OC(C)(C)OC4C3O)on2)c(C)c1` (stereo not drawn) the T/C [9] was 108 % of control and the T/C [10] was 90 % of control.

For `OCCC1CCN(CC/C=C2/c3ccc(F)cc3Sc3ccc(C(F)(F)F)cc32)CC1`, the T/C (dose: 25.0 micrograms/kg/injection, schedule: Q01DX001 (ip), vehicle: saline) was 99 % of control, the T/C (dose: 50.0 micrograms/kg/injection, schedule: Q01DX001 (ip), vehicle: saline) was 114 % of control and 96 % of control and the T/C (dose: 100.0 micrograms/kg/injection, schedule: Q01DX001 (ip), vehicle: saline) was 117 % of control.

`CCCCCN(CCCCC)CC(=O)c1ccc2cc(Br)c3ccccc3c2c1` was tested, and the T/C [9] was 104 % of control, the T/C [10] was 101 % of control and the T/C [11] was 108 % of control.

With `CSC(=S)N/N=C(/C)c1ccco1` the T/C [14] was 105 % of control and the T/C (dose: 100.0 mg/kg/injection, schedule: Q01DX009 (ip), vehicle: saline with Tween-80) was 95 % of control.

For `CCSc1nc(N)c(C(=O)N2CCCCC2)s1`, the T/C [17] was 99 % of control, the T/C [18] was 98 % of control and the T/C [19] was 105 % of control.

In the case of `O=C(O)c1cc(O)c(O)c(OC(=O)c2cc(O)c(O)c(O)c2CNc2ccc3cc(S(=O)(=O)O)cc(S(=O)(=O)O)c3c2)c1`, the T/C [9] is reported as 110 % of control, the T/C [10] is reported as 115 % of control and the T/C [11] is reported as 112 % of control.

For `CCCn1c(C)nc2c(N)cc(C(F)(F)F)cc21`, the T/C (dose: 100.0 mg/kg/injection, schedule: Q04DX002 (ip), vehicle: saline with Tween-80) was 105 % of control, the T/C (dose: 200.0 mg/kg/injection, schedule: Q04DX002 (ip), vehicle: saline with Tween-80) was 100 % of control and the T/C (dose: 400.0 mg/kg/injection, schedule: Q04DX002 (ip), vehicle: saline with Tween-80) was 95 % of control.

`CCN(CC)CCCC(C)NS(=O)(=O)c1cccc2c(N(C)C)cccc12` (stereo not drawn) was tested, and the T/C (dose: 6.25 mg/kg/injection, schedule: Q01DX009 (ip), vehicle: water) was 96 % of control, the T/C (dose: 12.5 mg/kg/injection, schedule: Q01DX009 (ip), vehicle: water) was 97 % of control and the T/C (dose: 25.0 mg/kg/injection, schedule: Q01DX009 (ip), vehicle: water) was 93 % of control. The T/C (dose: 50.0 mg/kg/injection, schedule: Q01DX009 (ip), vehicle: water) was 96 % of control and the T/C (dose: 100.0 mg/kg/injection, schedule: Q01DX009 (ip), vehicle: water) was 99 % of control.

`COc1cc2c(O)c3c(c(-c4ccc5c(c4)OCO5)c2cc1OC)C(=O)OC3` was tested, and the T/C (dose: 25.0 mg/kg/injection, schedule: Q01DX009 (ip), vehicle: Klucel (hydroxypropylcellulose) (HPC)) was 91 % of control, the T/C [17] was 100 % of control and the T/C [18] was 100 % of control. The T/C [19] was 117 % of control.

With `Cc1cc(N2C(=O)CSC2=S)c([N+](=O)[O-])cc1C` the T/C [20] was 91 % of control and the T/C (dose: 100.0 mg/kg/injection, schedule: Q01DX009 (ip), vehicle: suspension in saline) was 89 % of control.

For `c1ccc2c(c1)c1ccccc1c1n[se]nc21`, the T/C [6] was 90 % of control, the T/C (dose: 30.0 mg/kg/injection, schedule: Q01DX005 (ip), vehicle: saline with Tween-80) was 90 % of control and the T/C [21] was 98 % of control.

For `Nc1ccn(C2OC(CO)C3OP(=O)(O)OC32)c(=O)n1` (stereo not drawn), the T/C [1] was 101 % of control, the T/C (dose: 50.0 mg/kg/injection, schedule: Q01DX005 (ip), vehicle: water) was 100 % of control and the T/C (dose: 100.0 mg/kg/injection, schedule: Q01DX005 (ip), vehicle: water) was 101 % of control. For the same compound, the T/C [2] was 101 % of control and the T/C (dose: 400.0 mg/kg/injection, schedule: Q01DX005 (ip), vehicle: water) was 100 % of control.

`CC(C)NCC(O)COc1ccccc1C1CCCCC1` (stereo not drawn) was tested, and the T/C (dose: 6.25 mg/kg/injection, schedule: Q01DX009 (ip), vehicle: Klucel (hydroxypropylcellulose) (HPC)) was 103 % of control, the T/C (dose: 6.25 mg/kg/injection, schedule: Q01DX009 (ip), vehicle: saline with Tween-80) was 102 % of control and the T/C (dose: 12.5 mg/kg/injection, schedule: Q01DX009 (ip), vehicle: Klucel (hydroxypropylcellulose) (HPC)) was 106 % of control. For the same compound, the T/C [12] was 123 % of control and 94 % of control, the T/C [13] was 102 % of control and 113 % of control and the T/C [17] was 104 % of control. The T/C [14] was 99 % of control and 118 % of control and 96 % of control and the T/C [18] was 98 % of control.

For `O=c1c2cc(F)ccc2nnn1-c1ccccc1`, the T/C (dose: 12.5 mg/kg/injection, schedule: Q01DX009 (ip), vehicle: suspension in saline) was 88 % of control, the T/C (dose: 25.0 mg/kg/injection, schedule: Q01DX009 (ip), vehicle: suspension in saline) was 98 % of control and the T/C [7] was 86 % of control. The T/C [20] was 107 % of control and the T/C [8] was 90 % of control.

With `CC(NC(=O)OCc1ccccc1)C(=O)N1CCCC1C(=O)O` (stereo not drawn) the T/C [3] was 91 % of control, the T/C [4] was 90 % of control and the T/C [5] was 98 % of control.

`CC1=NNC(=O)C1` was tested, and the T/C [17] was 86 % of control, the T/C [18] was 102 % of control and the T/C [19] was 94 % of control. The T/C (dose: 400.0 mg/kg/injection, schedule: Q01DX009 (ip), vehicle: Klucel (hydroxypropylcellulose) (HPC)) was 106 % of control.

With `c1ccc2c(SCCCCCCCCCCCCSc3c4ccccc4nc4ccccc34)c3ccccc3nc2c1` the T/C [15] was 104 % of control, the T/C [16] was 98 % of control and the T/C (dose: 240.0 mg/kg/injection, schedule: Q01DX005 (ip), vehicle: Klucel (hydroxypropylcellulose) (HPC)) was 90 % of control.

In the case of `CC(=O)NC1=C(N2CC2)C(=O)C(NC(C)=O)=C(N2CC2)C1=O`, the T/C (dose: 125.0 micrograms/kg/injection, schedule: Q01DX010 (ip), vehicle: saline) is reported as 115 % of control, the T/C (dose: 500.0 micrograms/kg/injection, schedule: Q01DX010 (ip), vehicle: saline) is reported as 215 % of control and the T/C (dose: 1000.0 micrograms/kg/injection, schedule: Q01DX010 (ip), vehicle: saline) is reported as 255 % of control.

For `C=C(CCCCC)C(=O)/C=C/c1ccccc1`, the T/C [17] was 103 % of control, the T/C [18] was 107 % of control and the T/C [19] was 118 % of control.

In the case of `Cc1ccc(NC(=O)CCCC(=O)C(C#N)c2c(Cl)cccc2Cl)cc1C` (stereo not drawn), the T/C [21] is reported as 114 % of control, the T/C (dose: 120.0 mg/kg/injection, schedule: Q01DX005 (ip), vehicle: saline with Tween-80) is reported as 108 % of control and the T/C (dose: 240.0 mg/kg/injection, schedule: Q01DX005 (ip), vehicle: saline with Tween-80) is reported as 103 % of control.

With `CCNc1nc(NC(C)C)nc(N2CCc3ccccc3C2)n1` the T/C [9] was 106 % of control, the T/C [10] was 117 % of control and the T/C [11] was 110 % of control.
